The text below walks through data of the supplement of paper PMC10331698.

What all share (test): LOEC (log10 uM (lowest observed effect concentration))
Compound in test [1]: CNS(=O)(=O)C(F)(F)C(F)(F)C(F)(F)C(F)(F)C(F)(F)C(F)(F)C(F)(F)C(F)(F)F [N-Methylperfluorooctanesulfonamide]
The method, then: (§1)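 BioMAP Diversity Plus panel in human primary cell co-cultures, 4 concentrations in duplicate blinded samples. Responses are log10 fold change versus DMSO control, processed with tcpl v2.1.0. A hit is called when responses at any concentration exceed the cutoff (the larger of 3*bmad or log10(1.2)); the lowest observed effect concentration (modl_ga, log10 uM) is reported for hits.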

Compound in test [2]: O=C(O)C(F)(F)C(F)(F)C(F)(F)C(F)(F)C(F)(F)C(F)(F)C(F)(F)C(F)(F)Cl [9-Chloro-perfluorononanoic acid]
The method, then: as §1

Compound in test [3]: C=CC(=O)OCCC(F)(F)C(F)(F)C(F)(F)C(F)(F)F [2-(Perfluorobutyl)ethyl acrylate]
The method, then: as §1

Compound in test [4]: CC(C)(C)C(=O)CC(=O)C(F)(F)C(F)(F)C(F)(F)F [(Heptafluorobutanoyl)pivaloylmethane]
As for the experimental part: as §1

Compound in a further test: Cn1cnc([N+](=O)[O-])c1Sc1ncnc2[nH]cnc12 [Azathioprine]
The method, then: as §1

Compound in a further test: N=C(N)C(F)(F)C(F)(F)C(F)(F)C(F)(F)C(F)(F)C(F)(F)C(F)(F)F [Perfluorooctanamidine]
As for the experimental part: as §1

Compound in test [5]: O=C(O)C(F)(F)C(F)(F)C(F)(F)C(F)(F)C(F)(F)C(F)(F)C(F)(F)C(F)(F)C(F)(F)C(F)(F)C(F)(F)C(F)(F)C(F)(F)F [Perfluorotetradecanoic acid]
As for the experimental part: as §1

Compound in test [6]: O=C(O)C(F)(F)C(F)(F)C(F)(F)C(F)(F)C(F)(F)C(F)(F)C(F)(F)C(F)(F)C(F)(F)C(F)(F)C(F)(F)C(F)(F)F [Perfluorotridecanoic acid]
The method, then:
as §1

Compound in test [7]: O=C(O)C(F)(F)OC(F)(F)C(F)(F)OC(F)(F)C(F)(F)C(F)(F)C(F)(F)F [Perfluoro-3,6-dioxadecanoic acid]
As for the experimental part: as §1

Compound in test [8]: O=P(O)(O)CCC(F)(F)C(F)(F)C(F)(F)C(F)(F)C(F)(F)C(F)(F)C(F)(F)C(F)(F)F [((Perfluorooctyl)ethyl)phosphonic acid]
As for the experimental part: as §1

Compound in test [9]: O=S(=O)(O)C(F)(F)C(F)(F)C(F)(F)C(F)(F)C(F)(F)C(F)(F)C(F)(F)C(F)(F)F [Perfluorooctanesulfonic acid]
As for the experimental part: as §1

Compound in test [10]: O=S(=O)(O)C(F)(F)C(F)(F)C(F)(F)C(F)(F)C(F)(F)C(F)(F)C(F)(F)C(F)(F)F [Potassium perfluorooctanesulfonate]
As for the experimental part: as §1

Compound in test [11]: O=S(=O)(O)C(F)(F)C(F)(F)C(F)(F)C(F)(F)F [Perfluorobutanesulfonic acid]
As for the experimental part:
as §1

Compound in test [12]: O=C(O)CCC(F)(F)C(F)(F)C(F)(F)C(F)(F)C(F)(F)F [2H,2H,3H,3H-Perfluorooctanoic acid]
As for the experimental part:
as §1

Compound in the next test: NC(=O)C(F)(F)C(F)(F)C(F)(F)C(F)(F)C(F)(F)C(F)(F)C(F)(F)F [Perfluorooctanamide]
As for the experimental part:
as §1

Compound in test [13]: FC(F)(F)C(F)(F)C(F)(F)C(F)(F)C(F)(F)C(F)(F)C(F)(F)CCI [1-Iodo-1H,1H,2H,2H-perfluorononane]
The method, then:
as §1

± gives the standard deviation of the averaged measurements.

As to 3C HLADR down, the “LOEC (log10 uM)” value in test [1] is 1.3; in test [2], 1.78.

In the case of 3C Proliferation down, the “LOEC (log10 uM)” value in [3] is 1.78; in test [4] it was 1.78; in [1], 1.54 ± 0.34; with Azathioprine, 1.48; in the test with Perfluorooctanamidine, 1.78; in test [5], -0.199 ± 0.71. Further, the “LOEC (log10 uM)” value in test [6] is 1.22 ± 0.37; in test [2], 1.78; in test [7] it was 1.04 ± 1; in test [8], 0.801 ± 0.71.

On to 3C Thrombomodulin up, for which the “LOEC (log10 uM)” value in test [4] and in [2] was 1.78 throughout.

For the test system 4H Eotaxin3 down, the “LOEC (log10 uM)” value with Perfluorooctanamidine stood at 1.78; in [5] it was 0.345 ± 0.71; in test [8] it was 1.78.

For the test system 4H VCAM1 down, the “LOEC (log10 uM)” value with Azathioprine is 1.48; with Perfluorooctanamidine, 1.78; in [5] it was 0.0731 ± 0.32; in test [6], 0.716 ± 0.34; in test [2], 1.78.

With BE3C HLADR down, the “LOEC (log10 uM)” value was determined as 1.3 in test [2], 1.54 ± 0.34 in test [7], 1.3 in test [9] and 1.3 in [10].

With BE3C IL8 down, the “LOEC (log10 uM)” value in [1] worked out at 1.54 ± 0.34; in test [2] it was 1.54 ± 0.34; in test [9] it was 1.3.

On to BE3C IP10 down, for which the “LOEC (log10 uM)” value in [2] is 1.3; in test [7], 1.54 ± 0.34; in test [9], 1.3; in test [10], 1.3.

On to BE3C MMP9 down, for which the “LOEC (log10 uM)” value came out at 0.573 ± 0.39 in test [1], 1.78 in test [2], 1.3 in test [9] and 1.3 in test [10].

On to BE3C PAI1 down, for which the “LOEC (log10 uM)” value was determined as 0.845 in test [1], 1.3 in [2], 1.3 in test [9] and 1.3 in [10].

BE3C tPA up: in test [8], the “LOEC (log10 uM)” value stood at 1.3.

Consider BF4T Eotaxin3 down, for which the “LOEC (log10 uM)” value in test [2] was 0.801 ± 0.71; in test [7], 0.845; in test [8], 1.54 ± 0.34.

For the test system BF4T IL8 down, the “LOEC (log10 uM)” value in [1] amounted to 1.78.

For BT Bcell Proliferation down, the “LOEC (log10 uM)” value in test [3] was 1.78; with Azathioprine it was 1.48; with Perfluorooctanamidine, 1.78; in [8], 1.78.

As to CASM3C MIG down, the “LOEC (log10 uM)” value in test [3] was 1.78; in [1], 1.07 ± 0.32.

With CASM3C VCAM1 down, the “LOEC (log10 uM)” value came to 1.78 in [3], 0.801 ± 0.71 in test [1], 1.48 with Azathioprine and 0.954 in [6].

With IMphg ESelectin down, the “LOEC (log10 uM)” value in test [1] came to 0.845; with Azathioprine, 1.48.

For the test system IMphg ESelectin up, the “LOEC (log10 uM)” value in test [8], in test [9] and in test [10] was 1.78 each time.

IMphg IL1a up: the “LOEC (log10 uM)” value in test [1] was 1.54 ± 0.34.

For IMphg IL8 up, the “LOEC (log10 uM)” value in test [11] came to 1.78.

As for IMphg IL10 down, the “LOEC (log10 uM)” value in the test with Azathioprine amounted to 1.48; in test [2] it was 1.78; in test [7], 1.78; in test [12], 1.78; in test [8], 1.78; in test [9], 1.78. In addition, in test [10], the “LOEC (log10 uM)” value turned out to be 1.78.

Turning to KF3CT IL8 down, the “LOEC (log10 uM)” value amounted to 1.3 in test [1], 1.78 in test [2] and 1.78 in test [7].

On to KF3CT MMP9 down, for which the entries for the “LOEC (log10 uM)” value (in the test with Perfluorooctanamide; in [2]) were 1.78 and 1.3, respectively.

With KF3CT PAI1 up, in test [1], the “LOEC (log10 uM)” value is 0.801 ± 0.71.

For the test system LPS CD40 down, the “LOEC (log10 uM)” value (in test [3]; with Perfluorooctanamidine; in [8]) was 1.78 throughout.

As to LPS MCSF down, the “LOEC (log10 uM)” value with Azathioprine turned out to be 1.48; in test [6], 1.48; in [8] it was 1.78.

As to LPS PGE2 up, the “LOEC (log10 uM)” value in test [4] and in test [8] was 1.78 in each case.

Consider MyoF CollagenIV up, for which the figures for the “LOEC (log10 uM)” value in test [1], in [2] and in [7] were 0.845, 1.3 and 1.78, respectively.

On to SAg CD40 down, for which the “LOEC (log10 uM)” value in test [3] amounted to 1.78; in [6], 1.22 ± 0.37; in [2], 1.78; in test [8] it was 1.78.

On to SAg SRB down, for which the “LOEC (log10 uM)” value (in the test with Perfluorooctanamidine; in test [2]; in test [8]) was 1.78 throughout.

As for hDFCGF CollagenIII down, the “LOEC (log10 uM)” value with Azathioprine was determined as 0.977 ± 0.71; with Perfluorooctanamidine, 1.3; in test [6] it was 0.477; in test [2] it was 1.3; in test [7], 1.78; in test [8], 1.3.

Regarding hDFCGF ICAM1 down, the figures for the “LOEC (log10 uM)” value in [3], in test [1] and in test [2] were 1.78, 1.78 and 1.07 ± 0.32, respectively.

In the case of hDFCGF IP10 down, the “LOEC (log10 uM)” value in test [3] is 1.3; in the test with Azathioprine it was 1.22 ± 0.37; in test [6], 0.239 ± 0.34; in test [2], 1.3; in test [7] it was 1.54 ± 0.34; in test [9], 1.3. Moreover, the “LOEC (log10 uM)” value in test [10] was 1.07 ± 0.32.

hDFCGF PAI1 down: the “LOEC (log10 uM)” value with Azathioprine came out at 1.48; with Perfluorooctanamidine, 1.78; in [2], 1.78; in test [8] it was 1.78.

Turning to hDFCGF Proliferation down, the “LOEC (log10 uM)” value in test [3] turned out to be 1.54 ± 0.34; with Azathioprine, 1.48; in test [13] it was 0.301; with Perfluorooctanamidine it was 1.78; in test [6], 0.477; in test [2], 1.78. In addition, the “LOEC (log10 uM)” value in [8] and in [10] was 1.78 in each case.

For the test system hDFCGF VCAM1 down, the “LOEC (log10 uM)” value was found to be 1.3 in test [3]; 0.573 ± 0.39 in test [1]; 1.48 in the test with Azathioprine; 1.54 ± 0.34 in the test with Perfluorooctanamidine; 0.977 ± 0.71 in test [6]; 1.78 in test [2]. Moreover, the entries for the “LOEC (log10 uM)” value in test [7], in [9] and in test [10] were 1.3, 1.78 and 1.78, respectively.
